Test results from patent US20020173538A1, “Method for sensitizing cancer cells to cancer therapies with a mevalonate-reducing compound” (priority 2000, published 2002).
Like-named read-outs stand apart in the source and are kept apart here. Marks after values point to notes of the source that are not given here.

Legend:
[1] = MTT cell viability assay, Hep G2 cells (serum-free DMEM); conditions: human, Hep G2 cells, Cell viability
Source text: (§1) Human hepatoma cell lines Hep G2 and Hep 3 were chosen as the in vitro models of hepatocytes and hepatoma, respectively.

Hep G2 cells = assay: as above; conditions: Homo sapiens
Source text: as §1

Hep 3B cells = assay: MTT cell viability assay, Hep 3B cells (serum-free DMEM); conditions: for viability at 1.25 µM / viability at 5 µM / viability at 10 µM / viability at 25 µM / IC50 / viability at 0.1 µM / viability at 0.5 µM / viability at 1 µM / viability at 2 µM: Homo sapiens, Hep3B
Source text: as §1

[2] = no lovastatin 48 hr, then CAO 1.25 μM 48 hr
[3] = no lovastatin 48 hr, then CAO 5 μM 48 hr
[4] = HepG2, 48 h, read-out: IC50 (cell viability), 48 hr
[5] = HepG2, 72 h, read-out: IC50 (cell viability), 72 hr
[6] = 48 h, read-out: IC50 (cell viability), 48 hr
[7] = 72 h, read-out: IC50 (cell viability), 72 hr

With `CCCCCCCCOC(=O)/C=C/c1ccc(O)c(O)c1` [CAO, caffeic acid 1-octyl ester] as the compound, how does the viability at 96 h, 1.25 μM ([1]; CAO 1.25 μM alone, 96 hr) read?
Its viability at 96 h, 1.25 μM is 74 ± 2.9%.

What about the viability at 48 h, 1.25 μM ([1]; CAO 1.25 μM, 48 hr) of the same compound?
The viability at 48 h, 1.25 μM was 104 ± 4.6%.

What about the viability at 72 h, 1.25 μM ([1]; CAO 1.25 μM, 72 hr) of the same compound?
Its viability at 72 h, 1.25 μM is 102.7 ± 0.4%.

And the viability at 96 h, 5 μM ([1]; CAO 5 μM alone, 96 hr)?
The viability at 96 h, 5 μM was 16.2 ± 1.2%.

And the viability at 48 h, 5 μM ([1]; CAO 5 μM, 48 hr)?
The viability at 48 h, 5 μM was 44.2 ± 6.6%.

And the viability at 72 h, 5 μM ([1]; CAO 5 μM, 72 hr)?
The viability at 72 h, 5 μM was 18.1 ± 2.1%.

What about the viability at 48 h, 10 μM ([1]; CAO 10 μM, 48 hr) of the same compound?
The viability at 48 h, 10 μM was 5.8 ± 3.9%.

And the viability at 72 h, 10 μM ([1]; CAO 10 μM, 72 hr)?
The viability at 72 h, 10 μM was 0%.

What about the viability at 48 h, 25 μM ([1]; CAO 25 μM, 48 hr) of the same compound?
The viability at 48 h, 25 μM was 0%.

And the viability at 72 h, 25 μM ([1]; CAO 25 μM, 72 hr)?
Its viability at 72 h, 25 μM is 0%.

What about the viability at 48 h, 1.25 μM [1, 2] of the same compound?
Its viability at 48 h, 1.25 μM is 99 ± 4.1%.

And the viability at 48 h, 5 μM [1, 3]?
Its viability at 48 h, 5 μM is 42.8 ± 3%.

What about the IC50 (Hep G2 cells; [4]) of the same compound?
Its IC50 is 4 µM.

And the IC50 (Hep G2 cells; [5])?
The IC50 was 2.7 µM.

And the “Ratio, inhibition (%) Hep 3B/inhibition (%) Hep G2” value (shortened to “Ratio, inhibition … (%) Hep G2”) (Hep 3B cells; CAO 1.25 μM alone, 96 hr)?
The value was 1.3*.

And the “Ratio, inhibition … (%) Hep G2” value (Hep 3B cells; CAO 5 μM alone, 96 hr)?
Its value is 0.9.

What about the “Ratio, inhibition … (%) Hep G2” value (Hep 3B cells; CAO 5 μM, 48 hr) of the same compound?
Its value is 0.9**.

And the “Ratio, inhibition … (%) Hep G2” value (Hep 3B cells; CAO 5 μM, 72 hr)?
Its value is 1.0.

And the “Ratio, inhibition … (%) Hep G2” value (Hep 3B cells; CAO 10 μM, 48 hr)?
Its value is 0.8.

What about the “Ratio, inhibition … (%) Hep G2” value (Hep 3B cells; CAO 10 μM, 72 hr) of the same compound?
Its value is 1.0.

What about the “Ratio, inhibition … (%) Hep G2” value (Hep 3B cells; CAO 25 μM, 48 hr) of the same compound?
Its value is 1.0*.

What about the “Ratio, inhibition … (%) Hep G2” value (Hep 3B cells; CAO 25 μM, 72 hr) of the same compound?
Its value is 1.0.

What about the viability at 1.25 µM (Hep 3B cells; 48 h, read-out: Cell viability, CAO 1.25 μM, 48 hr) of the same compound?
The viability at 1.25 µM was 97.8 ± 4.1%.

And the viability at 5 µM (Hep 3B cells; 48 h, read-out: Cell viability, CAO 5 μM, 48 hr)?
Its viability at 5 µM is 52 ± 1.8%.

And the viability at 10 µM (Hep 3B cells; 48 h, read-out: Cell viability, CAO 10 μM, 48 hr)?
Its viability at 10 µM is 21.7 ± 3.9%.

And the viability at 25 µM (Hep 3B cells; 48 h, read-out: Cell viability, CAO 25 μM, 48 hr)?
The viability at 25 µM was 3.9 ± 1.3%.

And the IC50 (Hep 3B cells; [6])?
The IC50 was 5.3 µM.

And the viability at 1.25 µM (Hep 3B cells; 72 h, read-out: Cell viability, CAO 1.25 μM, 72 hr)?
Its viability at 1.25 µM is 89.8 ± 0.6%.

And the viability at 5 µM (Hep 3B cells; 72 h, read-out: Cell viability, CAO 5 μM, 72 hr)?
The viability at 5 µM was 16.3 ± 2.6%.

What about the viability at 10 µM (Hep 3B cells; 72 h, read-out: Cell viability, CAO 10 μM, 72 hr) of the same compound?
Its viability at 10 µM is 2.4 ± 1.6%.

What about the viability at 25 µM (Hep 3B cells; 72 h, read-out: Cell viability, CAO 25 μM, 72 hr) of the same compound?
The viability at 25 µM was 0%.

What about the IC50 (Hep 3B cells; [7]) of the same compound?
Its IC50 is 2.9 µM.

What about the viability at 1.25 µM (Hep 3B cells; 96 h, read-out: Cell viability, CAO 1.25 μM alone, 96 hr) of the same compound?
Its viability at 1.25 µM is 66.9 ± 2.9%.

What about the viability at 5 µM (Hep 3B cells; 96 h, read-out: Cell viability, CAO 5 μM alone, 96 hr) of the same compound?
Its viability at 5 µM is 20.1 ± 5.7%.

What about the Cell viability (Hep 3B cells; [2]) of the same compound?
The Cell viability was 83.0 ± 4.4^b % of control.

And the “Ratio, inhibition … (%) Hep G2” value (Hep 3B cells; [2])?
Its value is 17.0***.

And the Cell viability (Hep 3B cells; [3])?
The Cell viability was 53.2 ± 4.5^d % of control.

What about the “Ratio, inhibition … (%) Hep G2” value (Hep 3B cells; [3]) of the same compound?
The value was 0.8*.

With `COc1cccc2c1C(=O)c1c(O)c3c(c(O)c1C2=O)C[C@@](O)(C(=O)CO)C[C@@H]3O[C@H]1C[C@H](N)[C@H](O)[C@H](C)O1` [DOX, doxorubicin] as the compound, how does the viability at 48 hr, 0.1 μM ([1]; DOX 0.1 μM, 48 hr) read?
The viability at 48 hr, 0.1 μM was 100 ± 5.3%.

What about the viability at 72 hr, 0.1 μM ([1]; DOX 0.1 μM, 72 hr) of the same compound?
The viability at 72 hr, 0.1 μM was 99.9 ± 7.5%.

What about the viability at 48 hr, 0.5 μM ([1]; DOX 0.5 μM, 48 hr) of the same compound?
The viability at 48 hr, 0.5 μM was 42.8 ± 3.7%.

And the viability at 72 hr, 0.5 μM ([1]; DOX 0.5 μM, 72 hr)?
The viability at 72 hr, 0.5 μM was 46.7 ± 4%.

What about the viability at 48 hr, 1 μM ([1]; DOX 1 μM, 48 hr) of the same compound?
Its viability at 48 hr, 1 μM is 29.1 ± 1.7%.

And the viability at 72 hr, 1 μM ([1]; DOX 1 μM, 72 hr)?
The viability at 72 hr, 1 μM was 20 ± 1.1%.

And the viability at 48 hr, 2 μM ([1]; DOX 2 μM, 48 hr)?
Its viability at 48 hr, 2 μM is 16.7 ± 2.4%.

And the viability at 72 hr, 2 μM ([1]; DOX 2 μM, 72 hr)?
Its viability at 72 hr, 2 μM is 1.9 ± 0.8%.

What about the IC50 (Hep G2 cells; [4]) of the same compound?
The IC50 was 0.4 µM.

And the IC50 (Hep G2 cells; [5])?
Its IC50 is 0.5 µM.

What about the “Ratio, inhibition … (%) Hep G2” value (Hep 3B cells; DOX 0.5 μM, 48 hr) of the same compound?
The value was 0.6***.

What about the “Ratio, inhibition … (%) Hep G2” value (Hep 3B cells; DOX 0.5 μM, 72 hr) of the same compound?
The value was 0.7*.

And the “Ratio, inhibition … (%) Hep G2” value (Hep 3B cells; DOX 1 μM, 48 hr)?
Its value is 0.6***.

What about the “Ratio, inhibition … (%) Hep G2” value (Hep 3B cells; DOX 1 μM, 72 hr) of the same compound?
Its value is 0.6**.

And the “Ratio, inhibition … (%) Hep G2” value (Hep 3B cells; DOX 2 μM, 48 hr)?
Its value is 0.7***.

And the “Ratio, inhibition … (%) Hep G2” value (Hep 3B cells; DOX 2 μM, 72 hr)?
The value was 0.9**.

What about the viability at 0.1 µM (Hep 3B cells; 48 h, read-out: Cell viability, DOX 0.1 μM, 48 hr) of the same compound?
The viability at 0.1 µM was 99.9 ± 7.8%.

And the viability at 0.5 µM (Hep 3B cells; 48 h, read-out: Cell viability, DOX 0.5 μM, 48 hr)?
Its viability at 0.5 µM is 66.7 ± 1.6%.

What about the viability at 1 µM (Hep 3B cells; 48 h, read-out: Cell viability, DOX 1 μM, 48 hr) of the same compound?
The viability at 1 µM was 59.3 ± 4.1%.

What about the viability at 2 µM (Hep 3B cells; 48 h, read-out: Cell viability, DOX 2 μM, 48 hr) of the same compound?
Its viability at 2 µM is 40.1 ± 3%.

What about the IC50 (Hep 3B cells; [6]) of the same compound?
The IC50 was 1.5 µM.

And the viability at 0.1 µM (Hep 3B cells; 72 h, read-out: Cell viability, DOX 0.1 μM, 72 hr)?
Its viability at 0.1 µM is 100 ± 5.8%.

What about the viability at 0.5 µM (Hep 3B cells; 72 h, read-out: Cell viability, DOX 0.5 μM, 72 hr) of the same compound?
Its viability at 0.5 µM is 62.1 ± 6.9%.

What about the viability at 1 µM (Hep 3B cells; 72 h, read-out: Cell viability, DOX 1 μM, 72 hr) of the same compound?
The viability at 1 µM was 48.9 ± 8.4%.

And the viability at 2 µM (Hep 3B cells; 72 h, read-out: Cell viability, DOX 2 μM, 72 hr)?
The viability at 2 µM was 9.9 ± 2.7%.

What about the IC50 (Hep 3B cells; [7]) of the same compound?
Its IC50 is 1 µM.
